# Reference: article PMC4999892 (Scientific Reports, 2016)
# Bridges are numbered along the chain shown (N, C = ends). Where no end group is shown, it is not given here.
# What was measured:
# B. megaterium cells = experiment: Membrane permeability assay with propidium iodide; assay type: cell-based, Bacillus megaterium
# [1] = tested on: Aspergillus fumigatus CEA17; experiment: Inhibition zone assay; assay type: cell-based; conditions: mutant (pyrG-), N.A. = no inhibition zone at 0.8–1.0 nmol peptides each well
# Protocol: (§1) Antimicrobial activity of peptides was assessed by the inhibition zone assay. Membrane permeability assay was performed according to the method previously reported. Sources of microbial strains used here are listed in Supplementary Table S2.
# Aspergillus nidulans A28 = experiment: Inhibition zone assay; assay type: cell-based; conditions: N.A. = no inhibition zone at 0.8–1.0 nmol peptides each well
# Protocol: as §1
# [2] = tested on: Aspergillus nidulans RCho15; experiment: Inhibition zone assay; assay type: cell-based; conditions: N.A. = no inhibition zone at 0.8–1.0 nmol peptides each well
# Protocol: as §1
# Aspergillus niger = experiment: Inhibition zone assay; assay type: cell-based; conditions: N.A. = no inhibition zone at 0.8–1.0 nmol peptides each well
# Protocol: as §1
# [3] = tested on: Geotrichum candidum CCTCC AY 93038; experiment: Inhibition zone assay; assay type: cell-based; conditions: N.A. = no inhibition zone at 0.8–1.0 nmol peptides each well
# Protocol: as §1
# [4] = tested on: Neurospora crassa CGMCC 3.1605; experiment: Inhibition zone assay; assay type: cell-based; conditions: N.A. = no inhibition zone at 0.8–1.0 nmol peptides each well
# Protocol: as §1
# [5] = tested on: Aspergillus fumigatus CEA17, A. nidulans A28 and RCho15, A. niger, Geotrichum candidum, Neurospora crassa; conditions: summary of Table 1; range stated for DtDRS-1 and DRS together
# [6] = not given; remark: listed apart in the source
# [7] = not given; remark: listed apart in the source
# [8] = not given; remark: listed apart in the source
# [9] = tested on: Bacillus megaterium CGMCC 1.0459; experiment: Inhibition zone assay; assay type: cell-based; conditions: Gram-positive, N.A. = no inhibition zone at 0.8–1.0 nmol peptides each well
# Protocol: as §1
# [10] = tested on: Micrococcus luteus CGMCC 1.0290; experiment: Inhibition zone assay; assay type: cell-based; conditions: Gram-positive, N.A. = no inhibition zone at 0.8–1.0 nmol peptides each well
# Protocol: as §1
# [11] = tested on: Xanthomonas oryzae pv.oryzae; conditions: inhibition zone assay; Gram-negative; N.A. = no inhibition zone at 0.8–1.0 nmol peptides each well
# [12] = tested on: Bacillus megaterium and Micrococcus luteus; experiment: Inhibition zone assay, summary over two Gram-positive bacteria; assay type: cell-based; conditions: summary of Table 1
# [13] = tested on: G. candidum and N. crassa; experiment: Inhibition zone assay, summary over two fungal species; assay type: cell-based; conditions: summary of Table 1
# [14] = peptides at 5× CL, milder than positive control meucin-18
Compound,"Effect on membrane integrity (propidium iodide fluorescence) (B. megaterium cells; vancomycin at 10× CL, negative control)",CL (lethal concentration) [1] [µM],CL (lethal concentration) (Aspergillus nidulans A28) [µM],CL (lethal concentration) [2] [µM],CL (lethal concentration) (Aspergillus niger) [µM],CL (lethal concentration) [3] [µM],CL (lethal concentration) [4] [µM],"Lethal concentrations (CL), range over sensitive fungi [5] [µM]",Turns content [%],α-Helix content [6] [%],β-Sheet content [7] [%],Unordered content [8] [%],CL (lethal concentration) [9] [µM],CL (lethal concentration) [10] [µM],Effect on membrane integrity (propidium iodide fluorescence) (B. megaterium cells; [14]),CL (lethal concentration) [11] [µM],"CL, range over two Gram-positive bacteria [12] [µM]","CL, range over two fungal species [13] [µM]"
"CN[C@H](CC(C)C)C(=O)N[C@H]1C(=O)N[C@@H](CC(N)=O)C(=O)N[C@H]2C(=O)N[C@H]3C(=O)N[C@H](C(=O)N[C@H](C(=O)O)c4cc(O)cc(O)c4-c4cc3ccc4O)[C@H](O)c3ccc(c(Cl)c3)Oc3cc2cc(c3O[C@@H]2O[C@H](CO)[C@@H](O)[C@H](O)[C@H]2O[C@H]2C[C@](C)(N)[C@H](O)[C@H](C)O2)Oc2ccc(cc2Cl)[C@H]1O [vancomycin, reference compound]",no fluorescence increase,–,–,–,–,–,–,–,–,–,–,–,–,–,–,–,–,–
"DCLSGRYKGPCAVWDNETCRRVCKEEGRSSGHCSPSLKCWCEGC (disulfide 2-44, 11-33, 19-39, 23-41) [DRS, Drosomycin, reference compound]",–,0.30,0.45,1.73,1.32,1.89,0.1,0.1 to 2.6,–,–,–,–,–,–,–,–,–,–
"DCLSGRYKGPCAVWDNETCRRVCKEEGRVSGHCSPSLKCWCEGC (disulfide 2-44, 11-33, 19-39, 23-41) [DtDRS-1]",–,0.33,1.25,2.03,2.63,2.50,0.3,0.1 to 2.6,–,–,–,–,–,–,–,–,–,–
"DFKSGKFKGGCMAWSGEKCRRLCKEQGAVSGHCSSNFKCWCEM (disulfide 11-33, 19-39, 23-41 (inferred)) [DtDRS-11]",–,–,–,–,–,–,–,–,15,21,16,48,4.41,3.06,immediate fluorescence increase,8.84,–,–
"DFLSGKFKGGCMMWSGEKCRRLCKEQGAVSGHCSTNFKCWCEE (disulfide 11-33, 19-39, 23-41 (inferred)) [DtDRS-11d]",–,–,–,–,–,–,–,–,15,18,16,53,0.98,1.08,immediate fluorescence increase,–,0.98 to 1.08,–
"RDFLSGTFGGPCWAWSGEKCRRLCIEEGHVSGHCSGAMKCWCEG (disulfide 12-34, 20-40, 24-42 (inferred)) [DRS-3-WDB]",–,–,–,–,–,4.89,3.72,–,18,19,22,41,–,–,–,–,–,3.72 to 4.89
